Consider 19 compounds from patent EP1039902B1, “INHIBITORS OF GAP JUNCTION COMMUNICATION” (THE SCRIPPS RESEARCH INSTITUTE, priority 1997, dated 1999).

For assay [1], the target named is T1, fatty acid amide hydrolase (Rattus norvegicus, UniProt P97612).
T1 sequence (P97612 1-579): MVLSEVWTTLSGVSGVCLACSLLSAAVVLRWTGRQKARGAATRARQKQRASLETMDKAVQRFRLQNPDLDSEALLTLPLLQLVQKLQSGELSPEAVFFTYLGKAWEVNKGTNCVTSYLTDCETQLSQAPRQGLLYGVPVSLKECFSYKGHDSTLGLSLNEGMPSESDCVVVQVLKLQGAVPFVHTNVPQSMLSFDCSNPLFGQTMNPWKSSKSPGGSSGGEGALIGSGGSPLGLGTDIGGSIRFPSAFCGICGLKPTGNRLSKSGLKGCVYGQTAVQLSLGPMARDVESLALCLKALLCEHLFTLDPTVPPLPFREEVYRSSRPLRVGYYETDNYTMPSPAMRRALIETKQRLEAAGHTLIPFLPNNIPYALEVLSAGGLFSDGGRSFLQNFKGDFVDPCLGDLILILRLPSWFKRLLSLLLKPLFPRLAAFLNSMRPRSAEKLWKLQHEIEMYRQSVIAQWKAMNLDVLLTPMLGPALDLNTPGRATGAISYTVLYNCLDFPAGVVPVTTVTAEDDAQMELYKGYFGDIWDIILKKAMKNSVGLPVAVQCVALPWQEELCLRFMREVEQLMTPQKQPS
Put plainly: Inhibition of fatty acid amide hydrolase. The class given is biochemical.

The subject of assay [2] is rat glial cell gap junction. Put plainly: Gap junction dye coupling assay (Lucifer yellow dye transfer; microinjection or scrape loading). It is filed as cell-based. The following applies: for potency of gap junction inhibition relative to oleamide: comparison in words; for reversibility of gap junction inhibition: removal of media containing the agent, replacement with fresh media. As for the experimental part: (§1) Rat glial cells (Suter et al., 1987) obtained from Dr. Trosko's laboratory were cultured in standard plastic tissue cultureware in Richter's Improved Minimal Essential Medium (Irvine Scientific, Santa Ana, CA), supplemented with 10% fetal calf serum and 50 µg/ml gentamicin sulfate, and incubated in a humidified atmosphere of 95% air/5% CO2 at 37°C. The cells were passaged by trypsinization and used at passages 4-8. BHK (baby hamster kidney) cells that were stably transfected with a β1 connexin cDNA (Kumar et al., 1995) were cultured in DMEM medium supplemented with 5% fetal calf serum and 50 µg/ml gentamicin sulfate, and incubated in a humidified atmosphere of 95% air/5% CO2 at 37° C. In order to induce β1 connexin expression in the BHK cells, 100 µM zinc acetate was added to culture medium for 8-18 hours when the cell culture was about 90% confluent.
(§2) Gap junctional communication in glial cell and BHK/β1 cell cultures was assayed by microinjection of 5% Lucifer yellow CH dye in 0.1 M LiCl solution, and quantitated by determining the number of directly adjacent, neighboring cells that received dye (dye-coupling). Micropipettes were loaded with the dye solution by backfilling. Cells were visualized using a Nikon Diaphot inverted phase contrast/ epifluorescent microscope, and impaled with dye-filled micropipettes using an Eppendorf microinjector (model 5246). Five minutes after dye-injection, the transfer of dye to directly adjacent cells was determined using epifluorescent illumination. For each treatment condition, ten cells were microinjected in each of three dishes, the total number of dye-coupled neighboring cells was calculated and compared to determine the % dye-coupling. For scrape loading measurements, Lucifer yellow CH (0.05% dye in PBS) was loaded intracellularly by cutting or scraping cells in the monolayer with a sharp knife. The dye solution was left in the dish for 90 seconds, then the solution was discarded, and the dish subsequently washed with PBS. The cells were examined for dye transfer with an inverted epifluorescence microscope, and the degree of communication was assessed by determining the extent of Lucifer yellow transfer into contiguous cells.

A further assay concerns astrocyte. The following applies: cited from earlier work.
In the next assay the test system is astrocyte calcium waves. The following applies: mechanical stimulation or local glutamate application; cited from earlier work.
A further assay relates to BHK/β1 cells. Briefly: Gap junction dye transfer between β1 connexin-transfected BHK cells. The class given is cell-based, baby hamster. The procedure: as §1, §2
In another assay the test system is rat glial cells. Put plainly: Calcium wave propagation (Fluo-3, mechanical stimulation). It is filed as cell-based. As for the experimental part:
Rat glial cells were loaded with 5 µM Fluo-3/AM (Calbiochem) in Hank's balanced salt solution containing 25 mM HEPES buffer (HBSS/HEPES) for 1 hour, at which point the loading buffer was exchanged for new HBSS/HEPES buffer. The cell cultures were then left at room temperature for at least 30 minutes. Mechanical stimulation of a single cell was performed as follows: a glass micropipette (tip diameter of approximately 0.5 µm) was micro-manipulated downward on to a single cell causing a transient deformation of the cell membrane. The calcium image was then examined with an inverted fluorescence microscope, and photographed with a digital fluorescence microscope (excitation = 506 nm, emmision = 526 nm). The degree of calcium wave propagation was quantitated by counting at different time points the number of transmitting cells in one linear direction away from the stimulated cell. Junctional dye transfer rates were simultaneously examined by microinjection of Lucifer yellow CH in the same dishes; the methods for dye transfer assay was described in assay procedures, gap junction dye coupling assays. For calcium wave and dye transfer studies, the drug was preincubated with the glial cells for 10 minutes, and the drug was left in the experimental solution throughout the examination. All measurements were performed at room temperature.

For the next assay, the system named is α1 connexin. Briefly: Immunoblotting of α1 connexin phosphorylation isoforms. It is filed as cell-based, rat. As to conditions: 50 µM, 4 hours. As for the experimental part:
Plasma membrane fractions containing gap junctions were obtained after hypotonic alkali extraction of the glial cells. The extracted protein was dissolved in 2% SDS and the total protein was determined using the Bio-Rad DC Protein Assay kit (Bio-Rad Corp.). 10 µg of protein was electrophoresed by 10% SDS-PAGE, and subsequently blotted electrophoretically on to Immobilon-P membranes (Millipore Corp.). Gap junction protein was detected using anti-α1 connexin polyclonal rabbit antibodies, and the HRP/Chemiluminescence detection kit (Amersham Corp.) following the manufacturer's instructions.
For orientation: A western blot detects proteins with antibodies after separation by electrophoresis.

The next assay concerns rat cardiac myocytes. The following applies: cited from earlier work.
[3] abbreviates: result in words, concentration not stated at the place.

“Also recorded” adds a separate entry of the source. Where two headings read alike, the source gives them in different places.

With `CCCCCCCC/C=C\CCCCCCCC(=O)C(F)(F)F` [CF3], the inhibitory constant (Ki) in assay [1] came to 1 nM. Moreover, in assay [2], the “potency of gap junction inhibition relative to oleamide” value was “significantly more potent than oleamide” and the “reversibility of gap junction inhibition” value is listed as “reversible effect”.
For `CCCCCCCC/C=C\CCCCCCCC(=O)NCCO` [oleyl ethanolamide], the “inhibition of gap junction-mediated dye transfer” value is “effective inhibitors” in assay [2] (50 µM) and “significant inhibitors” in assay [2] (50 µM, listed as Oleyl ethanolamide). The “potency of gap junction inhibition relative to oleamide” value in assay [2] is given as “less potent than oleamide”; in assay [2] (listed as Oleyl ethanolamide) it was “less potent than oleamide at lower doses”. Further, the “gap junction-mediated dye transfer” value in the assay with astrocyte is recorded as “inhibit gap junction-mediated dye transfer”. Further, the “propagation of astrocyte calcium waves” value in the assay with astrocyte calcium waves was “block the propagation of astrocyte calcium waves”.
Regarding `CC1(C)[C@@H](O)CC[C@]2(C)[C@H]3C(=O)C=C4[C@@H]5C[C@@](C)(C(=O)O)CC[C@]5(C)CC[C@@]4(C)[C@]3(C)CC[C@@H]12` [18β-GA, 18β-glycyrrhetinic acid, reference compound], the “block of dye transfer” value in assay [2] (40 µM) is “completely blocking”. In assay [2], the “potency of gap junction inhibition relative to oleamide” value was “blocked dye transfer at doses comparable to oleamide”. Besides, in the assay with BHK/β1 cells (concentration not given), the “effect on dye transfer” value is on record as “inhibitory effects”. Besides, the calcium wave propagation result in the assay with rat glial cells (40 µM, 10 minutes prior to mechanical stimulation) is listed as “completely blocking; also recorded: did not propagate to any other cells”.
Take `CCCCCCCO` [heptanol, reference compound]: in assay [2] (3 mM), the “block of dye transfer” value was “completely blocking”. Further, in assay [2] (Rattus norvegicus, Glial cell, read-out: concentrations required to inhibit junctional communication), the minimal effective concentration amounted to 3000 µM. In the assay with BHK/β1 cells (concentration not given), the “effect on dye transfer” value is given as “inhibitory effects”. For the same compound, the calcium wave propagation entry in the assay on rat glial cells (3 mM) is given as “completely blocking”.
As to `Cc1ccc(C(=O)Nc2ccc(S(=O)(=O)O)c3cc(S(=O)(=O)O)cc(S(=O)(=O)O)c23)cc1NC(=O)c1cccc(NC(=O)Nc2cccc(C(=O)Nc3cc(C(=O)Nc4ccc(S(=O)(=O)O)c5cc(S(=O)(=O)O)cc(S(=O)(=O)O)c45)ccc3C)c2)c1` [suramin, reference compound], the gap junction communication result in assay [2] (200 µM) is recorded as “without affecting gap junction communication”. Further, the “glial calcium wave transmission” value with rat glial cells (200 µM) is recorded as “blocked glial calcium wave transmission”.
Turning to `CCCCCCCC/C=C\CCCCCCCC(=O)NCC(=O)O` [N-oleoyl glycine], the “inhibition of gap junction-mediated dye transfer” value in assay [2] (setting [3]) is on record as “ineffective”.
As to `CC/C=C\C/C=C\C/C=C\CCCCCCCC(N)=O` [α-linolenamide], the “inhibition of gap junction-mediated dye transfer” value in assay [2] (50 µM) was “ineffective”.
Consider `CCCCCCCC/C=C\CCCCCCCC(=O)N(C)CC(=O)OCC` [N-oleoyl sarcosine ethyl ester], for which the “inhibition of gap junction-mediated dye transfer” value in assay [2] (setting [3]) was “effective inhibitors”.
Consider `CCCCCCCC/C=C\CCCCCCC(SC(C)=O)C(N)=O` (stereo not drawn) [α-acetylthiooleamide], for which the “inhibition of gap junction-mediated dye transfer” value in assay [2] (setting [3]) was “effective inhibitors”.
Consider `CCCCCC/C=C\CCCCCCCCCC(N)=O` [cis-11-octadecenamide], for which the entries for the “inhibition of gap junction-mediated dye transfer” value in assay [2] (50 µM) and in assay [2] (100 µM) were “only slightly affected junctional coupling” and “completely blocked dye transfer”, respectively.
For `NC(=O)CCCCCCC/C=C\CCCCCCCC(N)=O` [symmetrical 18:1^9 dicarboxamide], the “inhibition of gap junction-mediated dye transfer” value in assay [2] (50 µM) was “no gap junction inhibition”.
In turn, `CCCCCCCC/C=C\CCCCCCCC=O` [oleyl aldehyde] yielded an inhibition constant Ki in assay [1] of 190 nM. In addition, in assay [2], the “potency of gap junction inhibition relative to oleamide” value is “nearly equipotent with oleamide” and the “reversibility of gap junction inhibition” value is on record as “reversible effect”. Besides, the “inhibition of gap junction-mediated dye transfer” value in assay [2] (setting [3]) is “surprisingly effective”.
Take `CCCCCCCC/C=C\CCCCCCCC(=O)OC` [methyl oleate]: the “inhibition of gap junction-mediated dye transfer” value in assay [2] (setting [3]) is listed as “progressively reduced effectiveness”.
Turning to `CCCCCCCC/C=C\CCCCCCCC(=O)CBr` [BrCH2, 1-Bromo-10Z-nonadecen-2-one], in assay [2] (setting [3]), the “inhibition of gap junction-mediated dye transfer” value is recorded as “substantially less effective”.
As to `CCCCCCCC/C=C\CCCCCCCC(OC)OC` [oleyl aldehyde dimethyl acetal, Oleyl aldehyde dimethyl acetal], in assay [2] (setting [3]), the “inhibition of gap junction-mediated dye transfer” value was “inactive”.
In the case of `CCCCCCCC/C=C\CCCCCCCC(=O)O` [Oleic acid, reference compound], in the assay with α1 connexin, the “α1 connexin phosphorylation profile (P2 isoform)” value was “No change”. Also, the “inhibition of gap junction-mediated dye transfer” value in assay [2] (setting [3]) is “inactive; also recorded: no effect”; in assay [2] (result in words, concentration not stated at the place, listed as oleic acid), “no effect”. Moreover, the “effect on dye transfer” value is reported as “no effect” in the assay with BHK/β1 cells (50 µM, 4 hours of treatment) and “no effect” with BHK/β1 cells (concentration not given). Also, the values for the gap junction inhibition result with rat cardiac myocytes and with rat cardiac myocytes (listed as oleic acid) were “inhibit the gap junction” and “inhibit gap junction communication”, respectively.
`CCCCCCCC/C=C\CCCCCCC(Cl)C(N)=O` (stereo not drawn) [α-chlorooleamide]: the “inhibition of gap junction-mediated dye transfer” value in assay [2] (setting [3]) is reported as “effective inhibitors”.
Turning to `CCCCC/C=C\C/C=C\C/C=C\CCCCC(N)=O` [γ-linolenamide], in assay [2] (setting [3]), the “inhibition of gap junction-mediated dye transfer” value is reported as “effective but less potent inhibitor”.
As for `CCCCCCCC/C=C/CCCCCCCC(N)=O` [trans-9-octadecenamide], in the assay on α1 connexin, the “α1 connexin phosphorylation profile (P2 isoform)” value was “No change”. Moreover, the “inhibition of gap junction-mediated dye transfer” value in assay [2] (result in words, concentration not given, listed as 18:1^9-trans) is listed as “no observable inhibition”; in assay [2] (setting [3]), “ineffective; also recorded: no effect”. For the same compound, the “effect on dye transfer” value with BHK/β1 cells (50 µM, 4 hours of treatment) is “no effect”; in the assay on BHK/β1 cells (concentration not given) it was “no effect”.

Broadly, the Ki is the equilibrium dissociation constant of an inhibitor or competing ligand from its target. Read a high Ki as a looser hold on the target.
